Experimental data published in ChEMBL document CHEMBL3763041, “Design and synthesis of new imidazo[1,2-a]pyridine and imidazo[1,2-a]pyrazine derivatives with antiproliferative activity against melanoma cells” (Eur J Med Chem, 2016).

test: Antiproliferative activity against human A375P cells expressing BRAF V600E mutant after 72 hrs by CellTiter-Glo assay; assay type: functional, cell-based

| Compound | IC50 [µM] |
| --- | --- |
| Cc1cc(C)cc(C(=O)Nc2cccc(-c3cnc4c(NC(=O)c5ccccc5)cccn34)c2)c1 | > 30 |
| Cc1ccc(C(=O)Nc2cccc(-c3cnc4c(N)nccn34)c2)cc1Cl | 2.27 |
| Nc1nccn2c(-c3cccc(NC(=O)c4cc(Cl)c(F)c(Cl)c4)c3)cnc12 | 4.09 |
| Nc1nccn2c(-c3cccc(NC(=O)Nc4ccc(F)c(Cl)c4)c3)cnc12 | 4.34 |
| Nc1nccn2c(-c3cccc(NC(=O)c4ccc(Cl)c(C(F)(F)F)c4)c3)cnc12 | 1.41 |
| Nc1nccn2c(-c3cccc(NC(=O)Nc4ccc(F)cc4F)c3)cnc12 | 0.92 |
| COc1cc(C(=O)Nc2cccc(-c3cnc4c(N)nccn34)c2)cc(OC)c1OC | 1.54 |
| Nc1nccn2c(-c3cccc(NC(=O)c4ccc(C(F)(F)F)cc4)c3)cnc12 | 7.04 |
| O=C(Nc1cccc(-c2cnc3c(NC(=O)c4ccccc4)nccn23)c1)c1ccc(Cl)c(C(F)(F)F)c1 | 1.82 |
| Cc1ccc(C(=O)Nc2cccc(-c3cnc4c(NC(=O)c5ccccc5)cccn34)c2)cc1Cl | 7.07 |
| Nc1nccn2c(-c3cccc(NC(=O)Nc4cc(C(F)(F)F)cc(C(F)(F)F)c4)c3)cnc12 | 9.06 |
| O=C(Nc1cccc(Cl)c1)Nc1cccc(-c2cnc3c(NC(=O)c4ccccc4)cccn23)c1 | 7.36 |
| O=C(Nc1cccc(-c2cnc3c(NC(=O)c4cc(C(F)(F)F)cc(C(F)(F)F)c4)nccn23)c1)c1ccc(Cl)c(C(F)(F)F)c1 | 0.55 |
| Nc1nccn2c(-c3cccc(NC(=O)Nc4cccc(Cl)c4)c3)cnc12 | 5.01 |
| O=C(Nc1cccc(-c2cnc3c(NC(=O)c4cccc(OC(F)(F)F)c4)nccn23)c1)c1ccc(F)c(Cl)c1 | 1.5 |
| O=C(Nc1cccc(-c2cnc3c(NC(=O)c4ccccc4)cccn23)c1)c1ccc(C(F)(F)F)cc1 | 1.7 |
| O=C(Nc1cccc(-c2cnc3c(NC(=O)c4ccccc4)cccn23)c1)c1ccc(Br)cc1 | 6.35 |
| O=C(Nc1cccc(-c2cnc3c(NC(=O)c4ccc(Cl)c(C(F)(F)F)c4)nccn23)c1)c1ccc(F)c(Cl)c1 | 1.08 |
| O=C(Nc1cccc(-c2cnc3c(NC(=O)c4cc(F)cc(F)c4)nccn23)c1)c1ccc(Cl)c(C(F)(F)F)c1 | 1.62 |
| O=C(Nc1cccc(-c2cnc3c(NC(=O)c4ccc(Cl)c(Cl)c4)nccn23)c1)c1ccc(Cl)c(C(F)(F)F)c1 | 0.66 |
| O=C(Nc1cccc(-c2cnc3c(NC(=O)c4ccccc4)cccn23)c1)c1ccc(OC(F)(F)F)cc1 | 21.3 |
| Nc1nccn2c(-c3cccc(NC(=O)c4ccc(F)cc4F)c3)cnc12 | 7.26 |

| Compound | IC50 [µM] |
| --- | --- |
| Cc1cc(C)cc(C(=O)Nc2cccc(-c3cnc4c(N)nccn34)c2)c1 | 0.82 |
| O=C(Nc1cccc(-c2cnc3c(NC(=O)c4ccc(F)c(C(F)(F)F)c4)nccn23)c1)c1ccc(Cl)c(C(F)(F)F)c1 | 0.46 |
| O=C(Nc1cccc(-c2cnc3c(NC(=O)c4ccccc4)cccn23)c1)c1ccc(F)c(C(F)(F)F)c1 | > 30 |
| O=C(Nc1cccn2c(-c3cccc(NC(=O)c4cccc(Cl)c4Cl)c3)cnc12)c1ccccc1 | > 30 |
| COc1ccc(C(=O)Nc2cccc(-c3cnc4c(NC(=O)c5ccccc5)cccn34)c2)cc1OC | 9.47 |
| Nc1nccn2c(-c3cccc(NC(=O)Nc4ccc(Cl)c(C(F)(F)F)c4)c3)cnc12 | 11.2 |
| O=C(Nc1cccc(-c2cnc3c(NC(=O)c4ccc(Br)cc4)nccn23)c1)c1ccc(F)c(Cl)c1 | 0.49 |
| O=C(Nc1cccc(-c2cnc3c(NC(=O)c4cccc(OC(F)(F)F)c4)nccn23)c1)c1ccc(Cl)c(C(F)(F)F)c1 | 1.03 |
| Nc1nccn2c(-c3cccc(NC(=O)c4cccc(C(F)(F)F)c4)c3)cnc12 | 2.08 |
| O=C(Nc1cccc(-c2cnc3c(NC(=O)c4cc(Cl)c(F)c(Cl)c4)nccn23)c1)c1ccc(Cl)c(C(F)(F)F)c1 | > 30 |
| O=C(Nc1cccc(-c2cnc3c(NC(=O)c4ccccc4)nccn23)c1)c1ccc(F)c(Cl)c1 | 1.16 |
| COc1ccc(C(=O)Nc2cccc(-c3cnc4c(N)nccn34)c2)cc1OC | 3.84 |
| Nc1nccn2c(-c3cccc(NC(=O)Nc4cccc(Cl)c4Cl)c3)cnc12 | 1.27 |
| O=C(Nc1cccc(-c2cnc3c(NC(=O)c4ccccc4)cccn23)c1)c1ccc(F)c(Cl)c1 | 8.04 |
| O=C(Nc1ccc(C(F)(F)F)cc1)Nc1cccc(-c2cnc3c(NC(=O)c4ccccc4)cccn23)c1 | 3.01 |
| O=C(Nc1cccc(-c2cnc3c(NC(=O)c4cc(Cl)c(F)c(Cl)c4)nccn23)c1)c1ccc(F)c(Cl)c1 | 1.29 |
| O=C(Nc1cccc(-c2cnc3c(NC(=O)c4ccccc4)cccn23)c1)Nc1cccc(C(F)(F)F)c1 | 4.29 |
| O=C(Nc1cccc(-c2cnc3c(NC(=O)c4cc(F)cc(F)c4)nccn23)c1)c1ccc(F)c(Cl)c1 | 0.45 |
| Nc1nccn2c(-c3cccc(NC(=O)c4ccccc4)c3)cnc12 | 0.85 |
| O=C(Nc1cccc(-c2cnc3c(NC(=O)c4ccccc4)cccn23)c1)c1cc(Cl)c(F)c(Cl)c1 | 7.34 |
| O=C(Nc1cccc(-c2cnc3c(NC(=O)c4ccccc4)cccn23)c1)Nc1ccc(Cl)c(Cl)c1 | 4.46 |
| Nc1nccn2c(-c3cccc(NC(=O)c4cccc(Cl)c4Cl)c3)cnc12 | 0.64 |

| Compound | IC50 [µM] |
| --- | --- |
| O=C(Nc1cccc(-c2cnc3c(NC(=O)c4ccc(C(F)(F)F)cc4)nccn23)c1)c1ccc(F)c(Cl)c1 | 0.56 |
| Cc1ccc(NC(=O)Nc2cccc(-c3cnc4c(N)nccn34)c2)cc1 | 2.7 |
| O=C(Nc1cccc(-c2cnc3c(NC(=O)c4ccccc4)cccn23)c1)c1ccc(Cl)c(C(F)(F)F)c1 | > 30 |
| Nc1nccn2c(-c3cccc(NC(=O)c4ccc(F)c(Cl)c4)c3)cnc12 | 0.34 |
| O=C(Nc1cccc(-c2cnc3c(NC(=O)c4cccc(C(F)(F)F)c4)nccn23)c1)c1ccc(Cl)c(C(F)(F)F)c1 | 12.7 |
| O=C(Nc1cccc(-c2cnc3c(NC(=O)c4ccc(F)c(Cl)c4)nccn23)c1)c1ccc(F)c(Cl)c1 | 0.89 |
| O=C(Nc1cccc(-c2cnc3c(NC(=O)c4ccccc4)cccn23)c1)c1ccccc1 | > 30 |
| Cc1ccc(C(=O)Nc2nccn3c(-c4cccc(NC(=O)c5ccc(Cl)c(C(F)(F)F)c5)c4)cnc23)cc1Cl | 2.79 |
| Nc1nccn2c(-c3cccc(NC(=O)c4ccc(Cl)c(Cl)c4)c3)cnc12 | 1.21 |
| O=C(Nc1cccc(-c2cnc3c(NC(=O)c4ccc(Cl)c(Cl)c4)nccn23)c1)c1ccc(F)c(Cl)c1 | 0.9 |
| O=C(Nc1cccc(-c2cnc3c(NC(=O)c4ccccc4)cccn23)c1)Nc1cc(C(F)(F)F)cc(C(F)(F)F)c1 | 2.08 |
| O=C(Nc1cccc(-c2cnc3c(NC(=O)c4ccccc4)cccn23)c1)c1cccc(OC(F)(F)F)c1 | > 30 |
| O=C(Nc1cccc(-c2cnc3c(NC(=O)c4cc(Cl)cc(Cl)c4)nccn23)c1)c1ccc(F)c(Cl)c1 | 1.15 |
| Nc1nccn2c(-c3cccc(NC(=O)Nc4ccc(C(F)(F)F)cc4)c3)cnc12 | 1.1 |
| O=C(Nc1cccc(-c2cnc3c(NC(=O)c4cccc(C(F)(F)F)c4)nccn23)c1)c1ccc(F)c(Cl)c1 | 1.08 |
| O=C(Nc1cccc(-c2cnc3c(NC(=O)c4ccccc4)cccn23)c1)Nc1cccc(Cl)c1Cl | 15.9 |
| Nc1nccn2c(-c3cccc(NC(=O)c4ccc(F)c(C(F)(F)F)c4)c3)cnc12 | 2.13 |
| Nc1nccn2c(-c3cccc(NC(=O)Nc4ccc(Br)cc4)c3)cnc12 | 4.64 |
| O=C(Nc1cccc(-c2cnc3c(NC(=O)c4ccccc4)cccn23)c1)c1cccc(C(F)(F)F)c1 | > 30 |
| O=C(Nc1cccc(-c2cnc3c(NC(=O)c4ccc(Cl)c(C(F)(F)F)c4)nccn23)c1)c1ccc(Cl)c(C(F)(F)F)c1 | 2.46 |
| Nc1nccn2c(-c3cccc(NC(=O)c4ccc(OC(F)(F)F)cc4)c3)cnc12 | 0.43 |
| Nc1nccn2c(-c3cccc(NC(=O)Nc4ccccc4)c3)cnc12 | 1.14 |

| Compound | IC50 [µM] |
| --- | --- |
| Cc1ccc(C)c(C(=O)Nc2cccc(-c3cnc4c(NC(=O)c5ccccc5)cccn34)c2)c1 | > 30 |
| O=C(Nc1cccc(-c2cnc3c(NC(=O)c4ccccc4)cccn23)c1)c1cc(F)cc(F)c1 | 7.94 |
| Nc1nccn2c(-c3cccc(NC(=O)c4cc(Cl)cc(Cl)c4)c3)cnc12 | 2.94 |
| Nc1nccn2c(-c3cccc(NC(=O)c4ccc(Br)cc4)c3)cnc12 | 0.75 |
| O=C(Nc1cccc(-c2cnc3c(NC(=O)c4cc(C(F)(F)F)cc(C(F)(F)F)c4)nccn23)c1)c1ccc(F)c(Cl)c1 | 1.16 |
| Cc1cc(C)cc(C(=O)Nc2nccn3c(-c4cccc(NC(=O)c5ccc(Cl)c(C(F)(F)F)c5)c4)cnc23)c1 | 0.18 |
| Cc1ccc(C)c(C(=O)Nc2cccc(-c3cnc4c(N)nccn34)c2)c1 | 2.73 |
| O=C(Nc1cccc(-c2cnc3c(NC(=O)c4cccc(Cl)c4Cl)nccn23)c1)c1ccc(F)c(Cl)c1 | 23.3 |
| O=C(Nc1cccc(-c2cnc3c(NC(=O)c4ccc(OC(F)(F)F)cc4)nccn23)c1)c1ccc(F)c(Cl)c1 | 0.44 |
| Nc1nccn2c(-c3cccc(NC(=O)Nc4cccc(C(F)(F)F)c4)c3)cnc12 | 5.23 |
| O=C(Nc1cccc(-c2cnc3c(NC(=O)c4ccccc4)cccn23)c1)Nc1ccc(Cl)c(C(F)(F)F)c1 | 2.32 |
| Cc1ccc(C(=O)Nc2nccn3c(-c4cccc(NC(=O)c5ccc(F)c(Cl)c5)c4)cnc23)cc1Cl | 0.98 |
| O=C(Nc1cccc(-c2cnc3c(NC(=O)c4ccc(Br)cc4)nccn23)c1)c1ccc(Cl)c(C(F)(F)F)c1 | 1.8 |
| Nc1nccn2c(-c3cccc(NC(=O)c4cc(F)cc(F)c4)c3)cnc12 | 0.46 |
| Nc1nccn2c(-c3cccc(NC(=O)c4cc(C(F)(F)F)cc(C(F)(F)F)c4)c3)cnc12 | 8.32 |
| O=C(Nc1cccc(-c2cnc3c(NC(=O)c4ccc(OC(F)(F)F)cc4)nccn23)c1)c1ccc(Cl)c(C(F)(F)F)c1 | 1.31 |
| O=C(Nc1cccc(-c2cnc3c(NC(=O)c4ccc(F)c(C(F)(F)F)c4)nccn23)c1)c1ccc(F)c(Cl)c1 | 1.14 |
| Nc1nccn2c(-c3cccc(NC(=O)c4cccc(OC(F)(F)F)c4)c3)cnc12 | 13.8 |
| O=C(Nc1cccc(-c2cnc3c(NC(=O)c4ccc(C(F)(F)F)cc4)nccn23)c1)c1ccc(Cl)c(C(F)(F)F)c1 | 1.6 |
| COc1cccc(C(=O)Nc2cccc(-c3cnc4c(N)nccn34)c2)c1C | 10.1 |
| O=C(Nc1cccc(-c2cnc3c(NC(=O)c4ccc(F)c(Cl)c4)nccn23)c1)c1ccc(Cl)c(C(F)(F)F)c1 | 2.86 |
| Cc1cc(C)cc(C(=O)Nc2nccn3c(-c4cccc(NC(=O)c5ccc(F)c(Cl)c5)c4)cnc23)c1 | 1.64 |
